Results reported in PubChem BioAssay AID720512 (Broad Institute, 2013).
Calls of active or inactive are those of the source. How the calls were made is not given here.

Molecular target: Toxin B (TcdB) glycohydrolase, Clostridioides difficile 630
Experiment: TcdB glycohydrolase inhibitors, dose response, biochemical, cherry-pick, plate reader (AID 720512)
Conditions: recombinant TcdB glycohydrolase activity

Structure (SMILES)	activity change, negative = inhibition (at 19.5 µM (top of the series))	also measured
Cc1noc(/C=C/c2ccccc2F)c1S(=O)(=O)N1CCC(C(=O)N2CCN(C)CC2)CC1	inactive	–
Cc1ccc2c(c1)-c1c(cnn1CC(=O)NC(C)CCc1ccco1)CO2 (stereo not drawn)	inactive	–
O=S(=O)(Oc1ccccc1/C=N/n1cnnc1)c1ccccc1	–	AC50: > 39 µM (inactive)
Fc1ccc(/C=C\c2nccc3c2[nH]c2ccccc23)cc1	inactive	–
O=C(C[C@@H]1CC[C@H]2[C@@H](COC[C@H](O)CN2C(=O)c2ccccn2)O1)NC1CCC1	inactive	–
COCC(=O)N1CC[C@@H]2[C@@H](CO)N(C)c3ccc(-c4ccccc4)cc3[C@@H]21	inactive	–
CNC(=O)C[C@H]1CC[C@@H]2[C@@H](COc3ccc(NC(=O)c4ccc(OC)cc4)cc3C(=O)N2C)O1	inactive	–
CC(=O)N1CC[C@@H]2[C@@H](CO)Nc3ccc(-c4ccccc4)cc3[C@@H]21	–	activity change, negative = inhibition (at 21 µM (top of the series)): inactive
COc1ccc(/C=N/N=C2/NC(=O)C(CC(=O)NC(N)=O)S2)cc1 (stereo not drawn)	inactive	–
COc1cc(/C=C(/NC(=O)c2ccccc2)C(=O)Nc2ccc(O)cc2)c([N+](=O)[O-])cc1OC	inactive	–
COc1cc(/C=C/C(=O)OCC(=O)NC(=O)NC(C)C)ccc1O	–	AC50: > 39 µM (inactive)
COc1cc(Cn2nnc3ccccc32)ccc1O	inactive	–
CC(=O)Nc1ccc(S(=O)(=O)Nc2nc3ccccc3nc2-n2ccc(=NC(=O)c3ccc(F)cc3)cc2)cc1	inactive	–
CC(C)(Oc1ccc(Cl)cc1)C(=O)NC1CC1	inactive	–
CCOc1ccc(NC(=O)c2ccc(CC)s2)c([N+](=O)[O-])c1	inactive	–
O=C(c1ccc2c(c1)N(Cc1ccccc1)C(=O)c1ccccc1S2)N1CCCC1	inactive	–
CCOc1cc(/C=N/n2cnnc2)ccc1O	–	AC50: > 39 µM (inactive)
CC(=O)N1CC[C@@H]2[C@@H](CO)N(C)c3ccc(-c4ccccc4)cc3[C@@H]21	–	AC50: > 42 µM (inactive)
Cc1ccccc1S(=O)(=O)N1CCCc2nc(C)c(C)cc21	inactive	–
O=c1[nH]c2cc(O)ccc2c2ccccc12	inactive	–
Cc1cc(C)c(S(=O)(=O)c2ccc(Cl)cc2C)c(Cl)n1	inactive	–
COc1cc(/C=C/c2sc3ccccc3[n+]2CCCS(=O)(=O)[O-])ccc1O	inactive	–

Structure (SMILES)	activity change, negative = inhibition (at 19.5 µM (top of the series))	also measured
CC(C)NC(=O)N1CC[C@@H]2[C@H]1c1cc(-c3ccccc3)ccc1N(C)[C@H]2CO	–	AC50: > 39 µM (inactive)
O=c1c(OC2OC(CO)C(O)C(O)C2O)c(-c2ccc(O)c(O)c2)oc2cc(O)cc(O)c12 (stereo not drawn)	–	activity change, negative = inhibition (at 10 µM (top of the series)): inactive
C/C(=N\NC(N)=S)c1ccc2c(c1)OCCO2	inactive	–
Cc1ccn2c(Cc3ccccc3)c(-c3ccc(F)cc3)nc2c1	inactive	–
Cc1ccc(C2=NS(=O)(=O)N(C)C(C(=O)NCc3ccc4c(c3)OCO4)=C2)cc1	inactive	–
O=C(N[C@@H](Cc1c[nH]c2ccccc12)C(=O)O)C1CCN(S(=O)(=O)c2cccs2)CC1	inactive	–
Cc1ccc(NNC(=O)c2ccno2)cc1C	inactive	–
Cc1cc(C)c(C)c(S(=O)(=O)N2CCCCC2C(=O)O)c1C (stereo not drawn)	inactive	–
O=C(N/N=C/c1cccc([N+](=O)[O-])c1)c1ccc(Br)cc1	inactive	–
COc1ccccc1/C=C/c1onc(C)c1S(=O)(=O)N1CCC(C(=O)NC(C)C)CC1	inactive	–
COC(=O)C[C@H]1CC[C@@H]2[C@@H](COc3ccc(NC(=O)c4ccc(OC)cc4)cc3C(=O)N2C)O1	inactive	–
COc1ccc(Cl)cc1NC(=O)Cn1c(NCCO)nc2ccccc21	inactive	–
COc1cccc(C(=O)C2CCCN(Cc3ccc(F)cc3)C2)c1 (stereo not drawn)	inactive	–
CCOc1ccccc1/C=C/c1onc(C)c1S(=O)(=O)N1CCC(C(=O)NC)CC1	–	AC50: > 39 µM (inactive)
CCOc1ccc(/C=N/n2nnnc2N)cc1O	–	AC50: > 39 µM (inactive)
Cc1cccc(-c2n[nH]c(=S)n2/N=C/C=C/c2ccco2)c1	inactive	–
CCN1CCN(c2oc(-c3ccccc3C)nc2S(=O)(=O)c2ccccc2)CC1	inactive	–
Cc1ccc2ccc[n+](Cc3ccccc3)c2c1	inactive	–
Oc1ccc(CCNc2ncnc3ccc(Cl)cc23)cc1	inactive	–
CCOC(=O)C1=C(C)Nc2nnnn2C1c1ccc(OC)c(Br)c1 (stereo not drawn)	inactive	–
CC(C)Cc1[nH]c(=O)c(C#N)c2c1CCC2	inactive	–
Cc1cc(C)c(NS(=O)(=O)c2cccc3cccnc23)c(C)c1	inactive	–

Structure (SMILES)	activity change, negative = inhibition (at 19.5 µM (top of the series))	also measured
NC(=O)c1ccc2c(=O)c(O)c(-c3cc(Cl)c(N)c(Cl)c3)[nH]c2c1	inactive	–
Clc1ccc(-c2nc3ccc(Cl)cn3c2Cc2ccccc2)cc1	inactive	–
COc1ccc(C2=NS(=O)(=O)N(C)C(C(=O)NC(C)c3ccccc3)=C2)cc1 (stereo not drawn)	inactive	–
CN(C)CCCNC(=O)C[C@H]1CC[C@@H]2[C@@H](COc3ccc(NC(=O)c4ccc5c(c4)OCO5)cc3C(=O)N2C)O1	inactive	–
CNC(=O)C1CCN(S(=O)(=O)c2c(C)noc2/C=C/c2ccccc2F)CC1	inactive	–
O=C(C[C@H]1CC[C@H]2[C@@H](COC[C@@H](O)CN2Cc2ccccc2)O1)NCCc1ccccc1	inactive	–
Cc1ccc(C(=O)NCCn2cc(SCC(=O)Nc3cc(C)on3)c3ccccc32)cc1	inactive	–
Cc1ccc(NC(=O)OC(C)N2CCCCC2)cc1NC(=O)OC(C)N1CCCCC1 (stereo not drawn)	inactive	–
O=C(C[C@H]1CC[C@H]2[C@@H](COC[C@H](O)CN2C(=O)Nc2ccc(Cl)c(Cl)c2)O1)NCc1ccncc1	inactive	–
COc1ccc(-c2ccc3c(c2)[C@H]2[C@H](CCN2C(=O)Cc2cccnc2)[C@@H](CO)N3C)cc1	inactive	–
CCc1ccc2oc(-c3cc(N)ccc3Cl)nc2c1	inactive	–
COc1ccc(C2=NS(=O)(=O)N(C)C(C(=O)N3CCN(C)CC3)=C2)cc1	inactive	–
O=S(=O)(Cc1cccc(F)c1)c1c[nH]c2ccccc12	inactive	–
CCOC(=O)c1ccc[n+](CC(=O)c2ccc(NC(=O)c3ccccc3)cc2)c1	inactive	–
COc1cc(/C=N/NC(=O)Cn2nnc3ccccc32)ccc1O	inactive	–
O=C(c1ccc(N2CCOCC2)c([N+](=O)[O-])c1)N1CCN(c2ccccc2F)CC1	inactive	–
COc1ccc(-c2csc(NC(=O)c3ccccc3F)c2C(=O)O)cc1	inactive	–
CC1(C)OC2C(O1)[C@@H](CO)O[C@H]2n1cnc2c(N)ncnc21 (stereo partly drawn)	inactive	–
Cc1ccc(C)c2c1cc(C)c1nnc(SCC(=O)NCc3ccc4c(c3)OCO4)n12	–	AC50: > 39 µM (inactive)
O=C(CSc1ccc2nnc(-c3ccc(F)cc3)n2n1)N1CCOCC1	inactive	–
CCOC(=O)Cn1c(C(F)(F)F)nc2nc(Cl)c(Cl)nc21	inactive	–
c1ccc(Cc2nnc3n2N=C(c2ccccc2)CS3)cc1	inactive	–

Structure (SMILES)	activity change, negative = inhibition (at 19.5 µM (top of the series))	also measured
Nc1nc(Cl)cc(NCCc2ccc(O)cc2)n1	inactive	–
O=C(Nc1ccc(N2CCOCC2)c(Cl)c1)c1ccc2c(c1)OCCO2	inactive	–
CSc1ccccc1NC(=O)C1=CC(c2ccc(C)cc2)=NS(=O)(=O)N1C	inactive	–
CC(C)(C)OCC(O)CN1CCN(C(=O)c2ccccc2)CC1 (stereo not drawn)	inactive	–
C[C@H]1CN([C@@H](C)CO)C(=O)c2c(c3ccccc3n2C)-c2ccccc2CO[C@H]1CN(C)C	inactive	–
O=C1NN=C2CCCCCCC12 (stereo not drawn)	inactive	–
O=C(NNC(=O)c1cccc2ccccc12)c1cccc(F)c1	inactive	–
CNC(C(=O)c1ccccc1)C(OC)c1cccc([N+](=O)[O-])c1 (stereo not drawn)	inactive	–
O=CN(c1ccccc1)c1ccc2ccccc2c1	inactive	–
CCOC(CCNC(=O)c1cn(CCOC)c(=O)c2c1c1ccccc1n2C)OCC	inactive	–
CCc1ccc(Nc2n[n+](-c3ccccc3)c(-c3ccc(OC)c(Br)c3)s2)cc1	inactive	–
C[C@H](CO)N1C[C@H](C)[C@@H](CN(C)C(=O)Nc2ccc(C(F)(F)F)cc2)Oc2ccc(NC(=O)C3CCCCC3)cc2C1=O	inactive	–
COc1ccc(NC2CCCN(C(=O)CN3CCOC3=O)C2)cc1OC (stereo not drawn)	inactive	–
CC(=O)c1cccc(-c2ccnc3c2CC(C(=O)NCc2ccccc2)O3)c1 (stereo not drawn)	inactive	–
O=c1ccc2cc(O)c(O)cc2o1	inactive	–
Nc1ncnc2[nH]c(=S)[nH]c12	inactive	–
COc1ccc(C(=O)OCC(=O)Nc2ccc3[nH]c(=O)[nH]c3c2)c(OC)c1OC	inactive	–
CCCNC(=O)C1(C)CCCN(C(=O)c2ccccc2OC(F)(F)F)C1 (stereo not drawn)	inactive	–
Cc1cc(C(C)(C)C)cc(CN2CCN(S(=O)(=O)c3cccs3)CC2)c1O	inactive	–
O=C(Nc1ccc(O)cc1)/C(=C/c1ccco1)NC(=O)c1ccccc1	inactive	–
COc1ccccc1/C=N/NC(=O)CC(=O)NCc1ccccc1	inactive	–
C/C(=N\Nc1cc(N2CCOCC2)ncn1)c1ccc(O)cc1	–	AC50: > 39 µM (inactive)
